According to US11292791B2 (priority 2017, dated 2022):

target: T1, BRD4 (Homo sapiens (Human), UniProt O60885); assay: not given; details: read-out: BRD4 IC50 (μM gmean)

SMILES | IC50 [µM]
COC(=O)N1c2ccc3c(nc(Nc4cc(C)nn4C)n3[C@H]3CC[C@H](C(=O)O)CC3)c2CC[C@@H]1C [Example 915] | 1 to 1000
COC(=O)N1c2ccc3c(nc(Nc4cc(C)nn4C)n3[C@@H]3CCC[C@@H](C(=O)O)C3)c2CC[C@@H]1C [Example 916] | 1 to 1000
COC(=O)N1c2ccc3c(nc(C(C)Cn4cccn4)n3C3CCC(C(=O)O)CC3)c2CC[C@@H]1C (stereo partly shown) [Example 917] | 1 to 1000
COC(=O)N1c2ccc3c(nc(C(C)Cn4cc(C)cn4)n3C3CCC(C(=O)O)CC3)c2CC[C@@H]1C (stereo partly shown) [Example 918] | 1 to 1000
COC(=O)N1c2ccc3c(nc(CC(C(=O)O)c4ccc(C(F)F)cc4)n3C3COCC(F)(F)C3)c2CC[C@@H]1C (stereo partly shown) [Example 920] | 1 to 1000
COC(=O)N1c2ccc3c(nc(C(=O)NC4CCCC4)n3[C@@H]3CCC[C@@H](C(=O)O)C3)c2CC[C@@H]1C [Example 922] | 1 to 1000
COC(=O)N1c2ccc3c(nc(C(=O)N(C)C4CCCC4)n3[C@@H]3CCC[C@@H](C(=O)O)C3)c2CC[C@@H]1C [Example 923] | 1 to 1000
COC(=O)N1c2ccc3c(nc(C(C)Cn4cc(Cl)cn4)n3C3CCS(=O)(=O)C3)c2CC[C@@H]1C (stereo partly shown) [Example 926] | 1 to 1000
COC(=O)N1c2ccc3c(nc(CC(C(=O)O)c4ccc(C)cc4)n3C3COCC(F)(F)C3)c2CC[C@@H]1C (stereo partly shown) [Example 927] | 1 to 1000
COC(=O)N1c2ccc3c(nc(C(C)Cc4cnn(C)c4)n3C3CCNCC3)c2CC[C@@H]1C (stereo partly shown) [Example 928] | 1 to 1000
COC(=O)N1c2ccc3c(nc(C(C)Cn4cc(Cl)cn4)n3C3CCS(=O)(=O)C3)c2CC[C@@H]1C (stereo partly shown) [Example 930] | 1 to 1000
COC(=O)N1c2ccc3c(nc(Nc4ccncc4F)n3[C@H]3CC[C@H](C(=O)O)CC3)c2CC[C@@H]1C [Example 933] | 1 to 1000
COC(=O)N1c2ccc3c(nc(C(=O)N(C)c4ccccc4)n3[C@@H]3CCC[C@@H](C(=O)O)C3)c2CC[C@@H]1C [Example 934] | 1 to 1000
COC(=O)N1c2ccc3c(nc(CCn4cccn4)n3CCN3CCNCC3)c2CC[C@@H]1C [Example 935] | 1 to 1000
COC(=O)N1c2ccc3c(nc(CC(C(=O)O)c4ccc(C(F)F)cc4)n3C3COCC(F)(F)C3)c2CC[C@@H]1C (stereo partly shown) [Example 937] | 1 to 1000
COC(=O)N1c2ccc3c(nc(C(=O)N(C)C4CCCCC4)n3[C@@H]3CCC[C@@H](C(=O)O)C3)c2CC[C@@H]1C [Example 939] | 1 to 1000
COC(=O)N1c2ccc3c(nc(Nc4ccncc4F)n3[C@@H]3CCC[C@@H](C(=O)O)C3)c2CC[C@@H]1C [Example 941] | 1 to 1000
COC(=O)N1c2ccc3c(nc(Nc4ccnc(C)c4)n3[C@H]3CC[C@H](C(=O)O)CC3)c2CC[C@@H]1C [Example 943] | 1 to 1000
COC(=O)N1c2ccc3c(nc(C(C)Cn4cccn4)n3C3CCS(=O)(=O)CC3)c2CC[C@@H]1C (stereo partly shown) [Example 946] | 1 to 1000
COC(=O)N1c2ccc3c(nc(C(C)Cc4ccccc4)n3C3CCNCC3)c2CC[C@@H]1C (stereo partly shown) [Example 947] | 1 to 1000
COC(=O)N1c2ccc3c(nc(C(=O)Nc4ccccc4)n3[C@@H]3CCC[C@@H](C(=O)O)C3)c2CC[C@@H]1C [Example 948] | 1 to 1000
COC(=O)N1c2ccc3c(nc(C(C)Cn4cc(C)cn4)n3C3CCS(=O)(=O)C3)c2CC[C@@H]1C (stereo partly shown) [Example 949] | 1 to 1000
COC(=O)N1c2ccc3c(nc(C(C)Cc4cnn(C)c4)n3C3CCNCC3)c2CC[C@@H]1C (stereo partly shown) [Example 951] | 1 to 1000
COC(=O)N1c2ccc3c(nc(C(C)Cn4cccn4)n3C3CCS(=O)(=O)C3)c2CC[C@@H]1C (stereo partly shown) [Example 955] | 1 to 1000
COC(=O)N1c2ccc3c(nc(C(C)Cn4cccn4)n3C3CCS(=O)(=O)C3)c2CC[C@@H]1C (stereo partly shown) [Example 956] | 1 to 1000
COC(=O)N1c2ccc3c(nc(C(C)Cn4cc(C)cn4)n3C3CCS(=O)(=O)C3)c2CC[C@@H]1C (stereo partly shown) [Example 958] | 1 to 1000
COC(=O)N1c2ccc3c(nc(C(=O)Nc4ccccc4Cl)n3[C@@H]3CCC[C@@H](C(=O)O)C3)c2CC[C@@H]1C [Example 961] | 1 to 1000

target: T1, BRD4; assay: biochemical; details: BRD4 IC50 (μM gmean)

SMILES | IC50 [µM]
COC(=O)N1c2ccc3c(nc(Cc4ccccc4)n3CCC(N)=O)c2CC[C@@H]1C [Example 289, methyl (7S)-2-benzyl-3-(2-carbamoylethyl)-7-methyl-3H,6H,7H,8H,9H-imidazo[4,5-f]quinoline-6-carboxylate] | 1 to 1000
